Data as given in patent US4579866A, “Phenylacetamides as anti-allergy, anti-asthma and anti-inflammatory agents” (USV Pharmaceutical Corp., priority 1984, dated 1986).

These compounds were tested against T1, RAT 5-LIPOXYGENASE (Rattus norvegicus, UniProt P12527) (assay: Biosynthesis of 5-HETE by rat polymorphonuclear leukocytes in vitro (inhibition of rat 5-lipoxygenase)). Settings: rat neutrophils, A23187, 3 minutes at 30° C.; concentration at which 50% inhibition is observed; read-out: INHIBITION OF RAT 5-LIPOXYGENASE, I50.
T1 construct: A suspension of rat neutrophils in buffer; endogenous in cells; host or cells: rat neutrophils (polymorphonuclear leukocytes)
T1 sequence (P12527 1-673): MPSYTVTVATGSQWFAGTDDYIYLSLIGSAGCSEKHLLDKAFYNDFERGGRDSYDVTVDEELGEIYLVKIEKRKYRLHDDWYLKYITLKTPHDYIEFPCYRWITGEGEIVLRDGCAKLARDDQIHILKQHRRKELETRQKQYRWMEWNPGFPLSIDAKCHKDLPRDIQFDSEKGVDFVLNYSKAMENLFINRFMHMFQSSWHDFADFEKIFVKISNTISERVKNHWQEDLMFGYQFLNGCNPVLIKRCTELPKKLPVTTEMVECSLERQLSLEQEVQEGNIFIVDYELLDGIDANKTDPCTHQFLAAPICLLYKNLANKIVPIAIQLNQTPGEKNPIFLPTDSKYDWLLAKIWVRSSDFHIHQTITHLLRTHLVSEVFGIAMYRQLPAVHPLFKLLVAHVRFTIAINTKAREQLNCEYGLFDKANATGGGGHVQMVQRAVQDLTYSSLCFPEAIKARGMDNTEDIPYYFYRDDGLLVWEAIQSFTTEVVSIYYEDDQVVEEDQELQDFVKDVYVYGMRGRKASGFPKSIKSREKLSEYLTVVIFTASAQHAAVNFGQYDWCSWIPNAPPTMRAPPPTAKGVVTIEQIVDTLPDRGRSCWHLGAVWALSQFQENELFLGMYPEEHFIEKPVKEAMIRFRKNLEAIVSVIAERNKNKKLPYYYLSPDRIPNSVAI
Format: cell-based
Procedure: Protocol for the Biosynthesis of 5-HETE by Rat Polymorphonuclear Leukocytes In Vitro
A suspension of rat neutrophils in buffer is incubated for 3 minutes at 30° C. with [^14 C]-arachidonic acid (AA) and calcium ionophore A23187. Citric Acid (2M) NDGA (10 mM) is used to quench the reaction. Following the addition of a trace amount of (^3 H)-5-HETE together with an excess of unlabeled 5-HETE to each tube, the mixture is extracted with chloroform/methanol. The organic layer is washed with dilute acid and an aliquot is transferred to glass tubes and dried. The residue is dissolved in a small volume of chloroform and an aliquot is spotted on silica gel TLC sheets, which are developed with an ethyl acetate/isoctane/water/acetic acid solvent system. The 5-HETE spots are visualized under UV light, cut out and placed in scintillation vials for counting. After adjusting for the extraction efficiency, the amount (pmole) of [^14 C]-5-HETE in each of the tubes is quantitated. The net pmoles of 5-HETE are obtained by subtracting the pmoles of 5-HETE in the tubes containing buffer alone (blank) from the pmoles of 5-HETE in the tubes containing […]. The ability of the test compounds to modulate the activity of this enzyme is determined by a decrease or increase in the net amount of 5-HETE produced.
If the percentage of inhibition exceeds 50%, the compounds are then evaluated in terms of response over a range of concentrations. From a plot of response against concentration, the I50 value is obtained. The I50 value is the concentration at which 50% inhibition is observed.

Row | IC50 [nM] | SMILES
1 | 800 | CCCOc1ccc(CC(=O)N[C@H](Cc2ccccc2)C(=O)OC)cc1Cl [3-Chloro-4-n-propyloxyphenylacetyl-D-phenylalanine methyl ester]
2 | 500 | C#CCOc1ccc(CC(=O)N[C@H](Cc2ccccc2)C(=O)OC)cc1Cl [3-Chloro-4-propargyloxyphenylacetyl-D-phenylalanine methyl ester]
3 | 3000 | CN(CC(O)c1ccccc1)C(=O)Cc1ccc(OCCc2ccccc2)c(Cl)c1 (stereo not shown) [N--[3-Chloro-4-phenylethyloxyphenylacetyl]-N--methyl-2-hydroxy-2-phenyl-ethyl-amine]
4 | 2400 | C=CCOc1ccc(CC(=O)N(C)CCc2ccccc2)cc1Cl [N--[4-Alloyoxy-3-chlorophenylacetyl]-N--methyl-2-phenylethylamine]
